This is an account of results in PMC6594423, “Cobimetinib and trametinib inhibit platelet MEK but do not cause platelet dysfunction” (Platelets, 2018).

This assay relates to T1, MEK1 (platelet MEK; MEK1/2 not resolved).
T1 construct: gene MAP2K1
In words: western blot of ERK1/[…] phosphorylation (MEK substrate) in CRP- or TRAP-6-stimulated washed human platelets. The assay is classed as cell-based. On the technique in general: Immunoblotting shows a protein as a band on a membrane.

For the compound `CC(=O)Nc1cccc(-n2c(=O)n(C3CC3)c(=O)c3c(Nc4ccc(I)cc4F)n(C)c(=O)c(C)c32)c1` [Trametinib], the IC50 is recorded as −10.9 ± 0.43 (logIC50) log M.

On to `O=C(c1ccc(F)c(F)c1Nc1ccc(I)cc1F)N1CC(O)([C@@H]2CCCCN2)C1` [Cobimetinib], for which the log10 IC50 (M) was -9.5.
